Columns and labels:
Type in all cases: in vivo
[1] = tested on: VERPE: Veronica persica; experiment: Post-emergence herbicidal efficacy at 80 g/ha, VERPE; details: visual rating about 3 weeks after treatment vs untreated controls
Description: (§1) Seeds of monocotyledonous and dicotyledonous weeds and crop plants were placed in sandy loam in plastic or organic planting pots, covered with soil and cultivated in a greenhouse under controlled growth conditions. 2 to 3 weeks after sowing, the test plants were treated at the one-leaf stage. The compounds of the invention, formulated in the form of wettable powders (WP) or as emulsion concentrates (EC), were then sprayed onto the green parts of the plants as aqueous suspension or emulsion with addition of 0.5% additive at a water application rate of 600 l/ha (converted). After the test plants had been kept in the greenhouse under optimum growth conditions for about 3 weeks, the activity of the preparations was rated visually in comparison to untreated controls. For example, 100% activity=the plants have died, 0% activity=like control plants. Tables B1 to B10 below show the effects of selected compounds of the general formula (I) according to Table 1 on various harmful plants and an application rate corresponding to 80 g/ha, which were obtained by the experimental procedure mentioned above.

[2] = tested on: AMARE: Amaranthus retroflexus; experiment: Pre-emergence herbicide efficacy at 80 g/ha, AMARE; details: scored visually after about 3 weeks
Source text: (§2) Seeds of monocotyledonous and dicotyledonous weed plants and crop plants were placed in plastic or organic planting pots and covered with soil. The compounds of the invention, formulated in the form of wettable powders (WP) or as emulsion concentrates (EC), were then applied to the surface of the covering soil as aqueous suspension or emulsion with addition of 0.5% additive at a water application rate equivalent to 600 l/ha. After the treatment, the pots were placed in a greenhouse and kept under good growth conditions for the test plants. After about 3 weeks, the efficacy of the preparations was scored visually in comparison with untreated controls as percentages. For example, 100% activity=the plants have died, 0% activity=like control plants. Tables D1 to D12 below show the effects of selected compounds of the general formula (I) according to Table 1 on various harmful plants and an application rate corresponding to 80 g/ha, which were obtained by the experimental procedure mentioned above.

[3] = tested on: AMARE: Amaranthus retroflexus; experiment: Post-emergence herbicidal efficacy at 80 g/ha, AMARE; details: visual rating about 3 weeks after treatment vs untreated controls
Description: as §1

[4] = tested on: VERPE: Veronica persica; experiment: Pre-emergence herbicide efficacy at 1280 g/ha, VERPE; details: visual scoring vs untreated controls
Procedure, shortened: (§3)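 Pre-emergence pot test in sandy loam: WP or EC formulations sprayed onto covering soil after sowing, as aqueous suspension/emulsion with 0.5% additive at 600 L/ha water. Plants grown in greenhouse; after about 3 weeks, efficacy scored visually as % versus untreated controls (100% = dead, 0% = like control).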

[5] = tested on: KCHSC: Kochia scoparia; experiment: Post-emergence herbicidal efficacy at 1280 g/ha, KCHSC; details: visual rating about 3 weeks after treatment vs untreated controls
Procedure, shortened: (§4)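 Weeds grown in sandy loam in the greenhouse were sprayed at the one-leaf stage, 2 to 3 weeks after sowing, with WP or EC formulations in water plus 0.5% additive at 600 L/ha. Damage was scored visually about 3 weeks later against untreated controls (0% = like control, 100% = plants dead).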

[6] = tested on: SETVI: Setaria viridis; experiment: Post-emergence herbicidal efficacy at 1280 g/ha, SETVI; details: visual rating about 3 weeks after treatment vs untreated controls
Procedure, shortened: as §4

[7] = tested on: LOLRI: Lolium rigidum; experiment: Pre-emergence herbicide efficacy at 1280 g/ha, LOLRI; details: visual scoring after about 3 weeks vs untreated controls
Source text: (§5) Seeds of mono- and dicotyledonous weed plants were placed in plastic pots in sandy loam soil (doubly sown with one species each of mono- or dicotyledonous weed plants per pot) and covered with soil. The compounds of the invention, formulated in the form of wettable powders (WP) or as emulsion concentrates (EC), were then applied to the surface of the covering soil as aqueous suspension or emulsion with addition of 0.5% additive at a water application rate of 600 litres per hectare (converted). After the treatment, the pots were placed in a greenhouse and kept under good growth conditions for the test plants. After about 3 weeks, the efficacy of the preparations was scored visually in comparison with untreated controls as percentages. For example, 100% activity=the plants have died, 0% activity=like control plants. Tables C1 to C12 below show the effects of selected compounds of the general formula (I) according to Table 1 on various harmful plants and at an application rate corresponding to 1280 g/ha, which were obtained by the trial procedure specified above.

[8] = tested on: DIGSA: Digitaria sanguinalis; experiment: Post-emergence herbicidal efficacy at 1280 g/ha, DIGSA; details: rated visually after about 3 weeks vs untreated controls, 100% = plants have died, 0% = like control plants
Description: Seeds of mono- and dicotyledonous weed plants were placed in plastic pots in sandy loam soil (doubly sown with in each case one species of mono- or dicotyledonous weed plants per pot), covered with soil and cultivated in a greenhouse under controlled growth conditions. 2 to 3 weeks after sowing, the test plants were treated at the one-leaf stage. The compounds of the invention, formulated in the form of wettable powders (WP) or as emulsion concentrates (EC), were applied to the green parts of the plants as aqueous suspension or emulsion with addition of 0.5% additive at a water application rate equivalent to 600 litres per hectare. After the test plants had been kept in the greenhouse under optimum growth conditions for about 3 weeks, the activity of the preparations was rated visually in comparison to untreated controls. For example, 100% activity=the plants have died, 0% activity=like control plants. Tables A1 to A12 below show the effects of selected compounds of the general formula (I) according to Table 1 on various harmful plants and at an application rate corresponding to 1280 g/ha, which were obtained by the trial procedure specified above.

[9] = tested on: AMARE: Amaranthus retroflexus; experiment: Post-emergence herbicidal efficacy at 1280 g/ha, AMARE; details: rated visually after about 3 weeks vs untreated controls, 100% = plants have died, 0% = like control plants
Procedure, shortened: as §4

[10] = tested on: POAAN: Poa annua; experiment: Post-emergence herbicidal efficacy at 1280 g/ha, POAAN; details: visual rating about 3 weeks after treatment vs untreated controls
Procedure, shortened: as §4

[11] = tested on: ABUTH: Abutilon theophrasti; experiment: Pre-emergence herbicide efficacy at 1280 g/ha, ABUTH; details: visual scoring after about 3 weeks vs untreated controls
Procedure, shortened: as §3

[12] = tested on: AMARE: Amaranthus retroflexus; experiment: Pre-emergence herbicide efficacy at 1280 g/ha, AMARE; details: visual scoring after about 3 weeks vs untreated controls
Procedure, shortened: as §3

[13] = tested on: STEME: Stellaria media; experiment: Pre-emergence herbicide efficacy at 1280 g/ha, STEME; details: visual scoring vs untreated controls
Procedure, shortened: as §3

[14] = tested on: ECHCG: Echinochloa crus-galli; experiment: Pre-emergence herbicide efficacy at 1280 g/ha, ECHCG; details: visual scoring after about 3 weeks vs untreated controls
Procedure, shortened: as §3

[15] = tested on: SETVI: Setaria viridis; experiment: Pre-emergence herbicide efficacy at 1280 g/ha, SETVI; details: visual scoring vs untreated controls
Procedure, shortened: as §3

[16] = tested on: VERPE: Veronica persica; experiment: Post-emergence herbicidal efficacy at 1280 g/ha, VERPE; details: visual rating about 3 weeks after treatment vs untreated controls
Procedure, shortened: as §4

[17] = tested on: DIGSA: Digitaria sanguinalis; experiment: Pre-emergence herbicide efficacy at 1280 g/ha, DIGSA; details: visual scoring after about 3 weeks vs untreated controls
Procedure, shortened: as §3

[18] = tested on: ABUTH: Abutilon theophrasti; experiment: Post-emergence herbicidal efficacy at 1280 g/ha, ABUTH; details: rated visually after about 3 weeks vs untreated controls, 100% = plants have died, 0% = like control plants
Procedure, shortened: as §4

[19] = tested on: POAAN: Poa annua; experiment: Pre-emergence herbicide efficacy at 1280 g/ha, POAAN; details: visual scoring after about 3 weeks vs untreated controls
Procedure, shortened: as §3

[20] = tested on: MATIN: Matricaria inodora; experiment: Pre-emergence herbicide efficacy at 1280 g/ha, MATIN; details: visual scoring after about 3 weeks vs untreated controls
Source text: as §5

[21] = tested on: ABUTH: Abutilon theophrasti; experiment: Pre-emergence herbicide efficacy at 80 g/ha, ABUTH; details: scored visually after about 3 weeks
Source text: as §2

[22] = tested on: KCHSC: Kochia scoparia; experiment: Pre-emergence herbicide efficacy at 1280 g/ha, KCHSC; details: visual scoring after about 3 weeks vs untreated controls
Procedure, shortened: as §3

[23] = tested on: STEME: Stellaria media; experiment: Post-emergence herbicidal efficacy at 1280 g/ha, STEME; details: visual rating about 3 weeks after treatment vs untreated controls
Procedure, shortened: as §4

[24] = tested on: ECHCG: Echinochloa crus-galli; experiment: Post-emergence herbicidal efficacy at 1280 g/ha, ECHCG; details: rated visually after about 3 weeks vs untreated controls, 100% = plants have died, 0% = like control plants
Procedure, shortened: as §4

[25] = tested on: POLCO; experiment: Pre-emergence herbicide efficacy at 80 g/ha, POLCO; details: Polygonum convolvulus, scored visually after about 3 weeks
Source text: as §2

[26] = tested on: DIGSA: Digitaria sanguinalis; experiment: Pre-emergence herbicide efficacy at 80 g/ha, DIGSA; details: scored visually after about 3 weeks
Source text: as §2

SMILES | Pre-emergence efficacy against AMARE in % [2] [%] | Post-emergence efficacy against AMARE [3] [%] | Pre-emergence efficacy against VERPE in % [4] [%] | Post-emergence efficacy against KCHSC [5] [%] | Post-emergence efficacy against SETVI [6] [%] | Post-emergence efficacy at 1280 g/ha against DIGSA in % [8] [%] | Post-emergence efficacy at 1280 g/ha against AMARE in % [9] [%] | Post-emergence efficacy against POAAN [10] [%] | Pre-emergence efficacy against ABUTH [11] [%] | Pre-emergence efficacy against AMARE [12] [%] | Pre-emergence efficacy against STEME in % [13] [%] | Pre-emergence efficacy against ECHCG [14] [%] | Pre-emergence efficacy against SETVI in % [15] [%] | Post-emergence efficacy against VERPE [16] [%] | Pre-emergence efficacy against DIGSA [17] [%] | Post-emergence efficacy at 1280 g/ha against ABUTH in % [18] [%] | Pre-emergence efficacy against POAAN [19] [%] | Pre-emergence efficacy against MATIN [20] [%] | also measured
O=S(=O)(CCCC(F)(F)F)Oc1c(F)cccc1Cc1ncc(Cl)cn1 [Example 1-14] | 90 | 95 | – | – | – | – | – | – | – | – | – | – | – | – | – | – | – | – | Post-emergence efficacy against VERPE [1]: 95%
Fc1ccc(Oc2ccccc2Cc2ncc(Cl)cn2)cc1 [Example 1-29] | – | – | 100 | 90 | 90 | 90 | 90 | 90 | 100 | 100 | 90 | 100 | 100 | 100 | 100 | 90 | 100 | 90 | Pre-emergence efficacy against LOLRI [7]: 100%
Fc1cnc(Oc2cccc(F)c2Cc2ncc(Cl)cn2)nc1 [Example 1-52] | 100 | 80 | 90 | 90 | – | – | 100 | – | 90 | 100 | 100 | 90 | 100 | 90 | 100 | – | 100 | 100 | Pre-emergence efficacy against ABUTH in % [21]: 90%; Pre-emergence efficacy against KCHSC [22]: 100%
Fc1ccc(Cc2ccccc2Oc2ncc(Cl)cn2)nc1 [Example 1-92] | – | – | 100 | 100 | 100 | 90 | 100 | 100 | 100 | 100 | 100 | 100 | 100 | 100 | 100 | 90 | 100 | 100 | Pre-emergence efficacy against KCHSC [22]: 100%; Post-emergence efficacy against STEME [23]: 100%
Fc1ccc(Sc2ccccc2Cc2ncc(F)cn2)cc1 [Example 1-104] | – | – | 100 | 100 | 90 | 100 | 100 | 100 | 100 | 100 | 100 | 100 | 100 | 100 | 100 | 100 | 100 | 100 | Post-emergence efficacy against STEME [23]: 100%; Post-emergence efficacy at 1280 g/ha against ECHCG in % [24]: 100%
Fc1cnc(Cc2cccc(F)c2Oc2ncc(Cl)cn2)nc1 [Example 1-154] | 100 | 90 | – | – | – | – | – | – | – | – | – | – | – | – | – | – | – | – | Pre-emergence efficacy against POLCO in % [25]: 80%
Fc1cnc(Cc2cccc(Cl)c2Oc2ncc(Cl)cn2)nc1 [Example 1-157] | 100 | 80 | – | – | – | – | – | – | – | – | – | – | – | – | – | – | – | – | Pre-emergence efficacy against DIGSA in % [26]: 80%
